Results taken from US5840918A, “Isoprenyl transferase inhibitors” (Eisai Co., Ltd., priority 1997, dated 1998).
“Also recorded” adds a separate entry of the source.

How the values were obtained:
FTase = biological target: T1, FTase (Bos taurus, UniProt P29702+P49355); assay: Inhibition of FTase-mediated prenylation (in vitro prenylation assay); assay type: biochemical; details: Table 1; partially purified FTase, 3 μM recombinant H-ras, 440 nM [3H]FPP, 15 min 37° C
T1 construct: bovine brain by inference from the cited Moores et al. 1991
From the text: (§1) Nanomolar concentrations of the indicated compounds were sufficient to inhibit farnesylation of ras proteins in vitro. For screening candidate compounds useful for the treatment of ras-associated tumors, the FTase assay is preferred. […] Substitutions which confer GGTase specificity as taught herein also produced potent inhibitors of GGTase.

GGTase = assay: Inhibition of GGTase-mediated prenylation (in vitro prenylation assay); assay type: biochemical; details: Table 1; partially purified GGTase, 5 μM recombinant H-ras (61L, CAIL), 1 μM [3H] geranylgeranyl diphosphate
From the text: as §1

[1] = system: H-ras farnesylation in H-ras (61L) transformed NIH3T3 fibroblasts; assay: Inhibition of H-ras farnesylation in whole cells (Western blot); assay type: cell-based, mouse
Method: The ability of compounds of the invention to inhibit H-ras farnesylation and rap1 geranylgeranylation in whole cells was determined. H-ras (61L) transformed NIH3T3 fibroblasts were generously provided by C. Der, Univ. N. Carolina. These fibroblasts were treated for 24 h with 50 μM lovastatin (control) or the indicated concentrations of inhibitor. The cells were lysed in 1% NP-40, 5 mM Tris-HCl (pH 8.0), 5 mM EDTA, 0.1 mM N-tosyl-L-phenylalanine chloromethyl ketone, 0.1 mM N-tosyl-L-lysine chloromethyl ketone, and 1 mM phenylmethylsulfonyl fluoride. The lysate was centrifuged (15000×g, 5 min.) and the supernatant was used as a cell extract. […] After transfer to IMMOBILON P™ membrane (Millipore), the blots were probed with LA069 mouse monoclonal antibody to H-ras (Quality Biotech), or rabbit polyclonal antibody to rap1/Krev (Santa Cruz Biotechnology). All Western blots were developed using ECL chemiluminescent reagents (Amersham).

[2] = system: H-ras (61L) transformed NIH3T3 fibroblast tumors; assay: Inhibition of tumor xenograft in mice, Example E (PM061); assay type: in vivo, mouse; details: for T/C (%) Volume / Tumor Volume: day 15
Method: H-ras (61L) transformed NIH3T3 fibroblasts were grown in Dulbecco's modified Eagle's medium supplemented with 10% heat-inactivated calf serum. 100 U/mL penicillin, 100 μg/mL streptomycin, and 0.75 mg/mL G418 (GIBCO) and incubated at 37° C. in 5% CO2. Cells were harvested from exponential-phase maintenance cultures (T-225 cm^2 culture flasks, Corning Inc., Corning, N.Y.) with trypsin-EDTA (GIBCO), centrifuged at 160 ×g for 5 min, washed once with 10 mL cold Hank's balanced salt solution (HBSS, GIBCO), and resuspended at a concentration of 1×10^6 cells/mL.
Five week old female athymic nude mice were obtained from SLC (3371-8, Kotoummachi, Hamamatsu-shi, Shizuoka 431-11, Japan) and maintained under pathogen-free conditions. The mice were subcutaneously injected in the lateral flank with 1×10^5 H-ras transformed cells/mouse.
Inhibitor compound PD331 was suspended in saline containing 2% Tween-80 in a total injection volume of 0.2 mL. Two dosage concentrations were prepared, 0.3 mg/mouse or 1.0 mg/mouse. Compound PD331 was subcutaneously injected daily at the site of tumor cell implantation for 5 consecutive days, starting approximately 8 h after the implantation (day 0). The control group was injected with vehicle only. Body weight and tumor dimensions were measured at days 7, 10, and 14. Tumor volume was estimated by the following calculation: tumor volume =(0.5)(length×width×width). At day 14, each mouse was euthanized with CO2 (g), and each tumor was excised and weighed. The statistical significance was estimated by the Student's T-test.
The same in vivo experiment as Example D above was performed, using compound PM061. Instead of 0.3 mg/mouse and 1.0 mg/mouse, three injection concentrations were prepared (0.5 mg/mouse, 1.0 mg/mouse, and 2.0 mg/mouse). Body weight and tumor size were measured at days 7, 10, and 15. Tumors were excised at day 15.

[3] = Mus musculus, NIH3T3, 24 h, Table 2

| IC50 (FTase) | IC50 (GGTase) | Structure (SMILES) | IC50 [1, 3] | also measured |
| --- | --- | --- | --- | --- |
| 7 nM | 144 nM | CSCC[C@H](NC(=O)c1cc(C/C=C/C(N)CS)ccc1-c1ccccc1)C(=O)O (some centres unmarked) [PM061] | 4800 nM | T/C (%) Volume ([2]; 0.5 mg/mouse s.c.): 90.3%; Tumor Volume ([2]; 0.5 mg/mouse s.c.): 2360.4 ± 645.0 µL; T/C (%) Volume ([2]; 1.0 mg/mouse s.c.): 101.8%; Tumor Volume ([2]; 1.0 mg/mouse s.c.): 2660.3 ± 756.4 µL; T/C (%) Volume ([2]; 2.0 mg/mouse s.c.): 53.6%; Tumor Volume ([2]; 2.0 mg/mouse s.c.): 1400.6 ± 703.2 µL; tumor volume as % of the tumor volume in the control mouse ([2]; injection of 2.0 mg): 53.2%; effect on H-ras tumor growth in mice ([2]; mouse, in vivo): had a significant effect on H-ras tumor growth in mice; also recorded: effectively inhibited the growth of ras-associated tumors in mice |
| 0.85 nM | 1550 nM | NC(=O)CC[C@H](NC(=O)c1cc(C/C=C/C(N)CS)ccc1-c1ccccc1)C(=O)O (some centres unmarked) [PM051] | 23500 nM |  |
| 320 nM | 2490 nM | CCOC(=O)[C@H](CCSC)NC(=O)C(/C=C/[C@@H](/C=C/C(N)CS)Cc1ccccc1)C(C)C (some centres unmarked) [PD351] | 3300 nM |  |
| 38 nM | 620 nM | CSCC[C@H](NC(=O)C(/C=C/[C@@H](/C=C/C(N)CS)C(C)(C)C)Cc1ccccc1)C(=O)O (some centres unmarked) [PD012] |  | IC50 ([1]; Table 2, 24 h): 72000 nM |
| 30 nM | 148 nM | CSCC[C@H](NC(=O)c1cc(C/C=C/C(N)CS)ccc1-c1cccc2ccccc12)C(=O)O (some centres unmarked) [PM082] | 21000 nM |  |
| 160 nM | 3960 nM | CC(C)COC(=O)[C@H](CCS(C)(=O)=O)NC(=O)c1cc(C/C=C/[C@@H](N)CS)ccc1-c1ccsc1 [PM072] | 2400 nM |  |
| 560 nM | 8400 nM | COC(=O)[C@H](CCSC)NC(=O)C(/C=C/[C@@H](/C=C/C(N)CS)C(C)C)C(C)C (some centres unmarked) [PD411] | 220 nM |  |
| 102 nM | 2660 nM | COC(=O)[C@H](CCSC)NC(=O)C(Cc1cccs1)NC[C@@H](/C=C/C(N)CS)C(C)C (some centres unmarked) [PA081] | 25 nM |  |
| 43 nM | 638 nM | COC(=O)[C@H](CCSC)NC(=O)C(Cc1ccccc1)SC[C@@H](/C=C/C(N)CS)C(C)C (some centres unmarked) [PT011] | 23 nM |  |
| 290 nM | 4850 nM | CSCC[C@H](NC(=O)c1cccc(C/C=C/C(N)CS)c1)C(=O)O (some centres unmarked) [PM102] | 26000 nM |  |
| 0.1 nM | 16 nM | CSCCC(NC(=O)c1cc(CC=CC(N)CSSCC(N)C=CCc2ccc(-c3ccccc3)c(C(=O)NC(CCSC)C(=O)O)c2)ccc1-c1ccccc1)C(=O)O (centres unmarked) [PM141] | 9700 nM |  |
| 2220 nM | 8050 nM | CSCC[C@H](NC(=O)C(/C=C/C(/C=C/CCS)C(C)C)Cc1ccccc1)C(=O)O (single isomer, unassigned) [PD112] | 193000 nM |  |
| 170 nM | 2380 nM | COC(=O)[C@H](CCSC)NC(=O)C(Cc1ccccc1)NC[C@@H](/C=C/C(N)CS)C(C)C (some centres unmarked) [PA091] | 100 nM |  |
| < 1 nM | 63.3 nM | CSCC[C@H](NC(=O)C(/C=C/[C@@H](/C=C/C(N)CS)C(C)(C)C)Cc1ccccc1)C(=O)O (some centres unmarked) [PD182] |  | IC50 ([1]; Table 2, 24 h): 2800 nM |
| 1.2 nM | 1660 nM | CSCC[C@H](NC(=O)c1cc(C/C=C/C(N)CS)ccc1C)C(=O)O (some centres unmarked) [PM112] | 4000 nM |  |
| 3 nM | 10 nM | CSCCC(NC(=O)C(/C=C\[C@@H](/C=C/C(N)CS)C(C)C)C(C)C)C(=O)O (some centres unmarked) [PD122] | 400 nM |  |
| 8 nM | 72 nM | COc1ccccc1-c1ccc(C/C=C/C(N)CS)cc1C(=O)N[C@@H](CCSC)C(=O)O (some centres unmarked) [PM142] | 1100 nM |  |
| 5 nM | 1620 nM | CSCC[C@H](NC(=O)C(/C=C/[C@@H](/C=C/C(N)CS)C(C)C)C(C)C)C(N)=O (some centres unmarked) [PD042] | 1950 nM |  |
| 115 nM | 1400 nM | COC(=O)[C@H](CCSC)NCc1cc(C/C=C/[C@@H](N)CS)ccc1-c1ccccc1 [PM031] | 25000 nM |  |
| 2 nM | 3.7 nM | CC(C)[C@@H](/C=C\C(Cc1ccccc1)C(=O)NC(CCC(N)=O)C(=O)O)/C=C/C(N)CS (some centres unmarked) [PD301] | 4500 nM |  |
| 605 nM | 3870 nM | CCOC(=O)[C@H](CCSC)NC(=O)c1cc(C/C=C/C(N)CS)ccc1-c1ccccc1 (some centres unmarked) [PM151] | 2900 nM |  |
| 0.3 nM | 190 nM | CSCC[C@H](NC(=O)c1cc(C/C=C/C(N)CS)ccc1-c1ccco1)C(=O)O (some centres unmarked) [PM052] | 2600 nM |  |
| 24 nM | 793 nM | CSCC[C@H](NC(=O)c1cc(C/C=C\C(N)CS)ccc1-c1ccccc1)C(=O)O (some centres unmarked) [PM101] | 14600 nM |  |
